Measured values taken from ChEMBL document CHEMBL3414511, “Synthesis of a novel class of substituted benzothiophene or benzofuran derivatives as BMP-2 up-regulators and evaluation of the BMP-2-up-regulating effects in vitro and the effects on glucocorticoid-induced osteoporosis in rats” (Eur J Med Chem, 2015).
Activity calls are given as the source filed them. No cut-off for these calls is given here.

Columns and labels:
Rattus norvegicus [1] = test: Antiosteoporotic activity in glucocorticoid-induced Wistar rat osteoporosis model assessed as increase in trabecula thickness at 0.05 ug/kg/day, po administered six times a week for 3 months by toluidine blue staining-based light microscopic analysis relative to dexamethasone; type: functional, organism-based
Rattus norvegicus [2] = test: Toxicity in glucocorticoid-induced Wistar rat osteoporosis model assessed as aspartate transaminase level at 0.05 ug/kg/day, po administered six times a week for 3 months (reference value: 177.55 +/- 116.98 U/L); type: organism-based; details: in vivo, 5e-05 mg/kg
Rattus norvegicus [3] = test: Toxicity in glucocorticoid-induced Wistar rat osteoporosis model assessed as lymph level at 0.05 ug/kg/day, po administered six times a week for 3 months (reference value: 50.35 +/- 12.96%); type: organism-based; details: in vivo, 5e-05 mg/kg
Rattus norvegicus [4] = test: Antiosteoporotic activity in glucocorticoid-induced Wistar rat osteoporosis model assessed as increase in trabecula connectivity at 0.05 ug/kg/day, po administered six times a week for 3 months by toluidine blue staining-based light microscopic analysis relative to dexamethasone; type: functional, organism-based
Rattus norvegicus [5] = test: Toxicity in glucocorticoid-induced Wistar rat osteoporosis model assessed as white blood cells at 0.05 ug/kg/day, po administered six times a week for 3 months (reference value: 6.28 +/- 2.78 x 10^9/L); type: organism-based; details: in vivo, 5e-05 mg/kg
Rattus norvegicus [6] = test: Antiosteoporotic activity in glucocorticoid-induced Wistar rat osteoporosis model assessed as increase in trabecula number at 0.05 ug/kg/day, po administered six times a week for 3 months by toluidine blue staining-based light microscopic analysis relative to dexamethasone; type: functional, organism-based
Rattus norvegicus [7] = test: Antiosteoporotic activity in glucocorticoid-induced Wistar rat osteoporosis model assessed as trabecular bone volume at 0.05 ug/kg/day, po administered six times a week for 3 months by fluorescence assay (reference value: 33.09 +/- 5.15%); type: functional, Trabecula
Rattus norvegicus [8] = test: Toxicity in glucocorticoid-induced Wistar rat osteoporosis model assessed as alanine transaminase level at 0.05 ug/kg/day, po administered six times a week for 3 months (reference value: 43.73 +/- 36.21 U/L); type: organism-based; details: in vivo, 5e-05 mg/kg
Rattus norvegicus [9] = test: Antiosteoporotic activity in glucocorticoid-induced Wistar rat osteoporosis model assessed as increase in trabecula area at 0.05 ug/kg/day, po administered six times a week for 3 months by toluidine blue staining-based light microscopic analysis relative to dexamethasone; type: functional, organism-based
Rattus norvegicus [10] = test: Antiosteoporotic activity in glucocorticoid-induced Wistar rat osteoporosis model assessed as mineral apposition rate at 0.05 ug/kg/day, po administered six times a week for 3 months by fluorescence assay (reference value: 1.06 +/- 0.27 micrometer/day); type: functional
Rattus norvegicus [11] = test: Toxicity in glucocorticoid-induced Wistar rat osteoporosis model assessed as triglycerides level at 0.05 ug/kg/day, po administered six times a week for 3 months (reference value: 1.13 +/- 0.69 mmol/L); type: organism-based; details: in vivo, 5e-05 mg/kg
Rattus norvegicus [12] = test: Antiosteoporotic activity in glucocorticoid-induced Wistar rat osteoporosis model assessed as trabecula resorption surface at 0.05 ug/kg/day, po administered six times a week for 3 months by fluorescence assay (reference value: 7.22 +/- 2.04%); type: functional
Rattus norvegicus [13] = test: Toxicity in glucocorticoid-induced Wistar rat osteoporosis model assessed as neutrophilic granulocytes level at 0.05 ug/kg/day, po administered six times a week for 3 months (reference value: 31.95 +/- 8.33%); type: organism-based; details: in vivo, 5e-05 mg/kg
Rattus norvegicus [14] = test: Antiosteoporotic activity in glucocorticoid-induced Wistar rat osteoporosis model assessed as trabecula formation surface at 0.05 ug/kg/day, po administered six times a week for 3 months by fluorescence assay (reference value: 7.82 +/- 2.46%); type: functional
Rattus norvegicus [15] = test: Antiosteoporotic activity in glucocorticoid-induced Wistar rat osteoporosis model assessed as increase in trabecula number at 5 mg/kg/day, po administered six times a week for 3 months by toluidine blue staining-based light microscopic analysis relative to dexamethasone; type: functional, organism-based
Rattus norvegicus [16] = test: Toxicity in glucocorticoid-induced Wistar rat osteoporosis model assessed as alanine transaminase level at 5 mg/kg/day, po administered six times a week for 3 months (reference value: 43.73 +/- 36.21 U/L); type: organism-based; set-up: route oral; details: in vivo
Rattus norvegicus [17] = test: Antiosteoporotic activity in glucocorticoid-induced Wistar rat osteoporosis model assessed as trabecular bone volume at 5 mg/kg/day, po administered six times a week for 3 months by fluorescence assay (reference value: 33.09 +/- 5.15%); type: functional, Trabecula
Rattus norvegicus [18] = test: Toxicity in glucocorticoid-induced Wistar rat osteoporosis model assessed as white blood cells at 5 mg/kg/day, po administered six times a week for 3 months (reference value: 6.28 +/- 2.78 x 10^9/L); type: organism-based; set-up: route oral; details: in vivo
Rattus norvegicus [19] = test: Toxicity in glucocorticoid-induced Wistar rat osteoporosis model assessed as aspartate transaminase level at 5 mg/kg/day, po administered six times a week for 3 months (reference value: 177.55 +/- 116.98 U/L); type: organism-based; set-up: route oral; details: in vivo
Rattus norvegicus [20] = test: Antiosteoporotic activity in glucocorticoid-induced Wistar rat osteoporosis model assessed as increase in trabecula connectivity at 5 mg/kg/day, po administered six times a week for 3 months by toluidine blue staining-based light microscopic analysis relative to dexamethasone; type: functional, organism-based
Rattus norvegicus [21] = test: Antiosteoporotic activity in glucocorticoid-induced Wistar rat osteoporosis model assessed as trabecula formation surface at 5 mg/kg/day, po administered six times a week for 3 months by fluorescence assay (reference value: 7.82 +/- 2.46%); type: functional
Rattus norvegicus [22] = test: Toxicity in glucocorticoid-induced Wistar rat osteoporosis model assessed as lymph level at 5 mg/kg/day, po administered six times a week for 3 months (reference value: 50.35 +/- 12.96%); type: organism-based; set-up: route oral; details: in vivo
Rattus norvegicus [23] = test: Antiosteoporotic activity in glucocorticoid-induced Wistar rat osteoporosis model assessed as mineral apposition rate at 5 mg/kg/day, po administered six times a week for 3 months by fluorescence assay (reference value: 1.06 +/- 0.27 micrometer/day); type: functional
Rattus norvegicus [24] = test: Antiosteoporotic activity in glucocorticoid-induced Wistar rat osteoporosis model assessed as trabecula resorption surface at 5 mg/kg/day, po administered six times a week for 3 months by fluorescence assay (reference value: 7.22 +/- 2.04%); type: functional
Rattus norvegicus [25] = test: Toxicity in glucocorticoid-induced Wistar rat osteoporosis model assessed as triglycerides level at 5 mg/kg/day, po administered six times a week for 3 months (reference value: 1.13 +/- 0.69 mmol/L); type: organism-based; set-up: route oral; details: in vivo
Rattus norvegicus [26] = test: Antiosteoporotic activity in glucocorticoid-induced Wistar rat osteoporosis model assessed as increase in trabecula thickness at 5 mg/kg/day, po administered six times a week for 3 months by toluidine blue staining-based light microscopic analysis relative to dexamethasone; type: functional, organism-based
Rattus norvegicus [27] = test: Toxicity in glucocorticoid-induced Wistar rat osteoporosis model assessed as neutrophilic granulocytes level at 5 mg/kg/day, po administered six times a week for 3 months (reference value: 31.95 +/- 8.33%); type: organism-based; set-up: route oral; details: in vivo
Rattus norvegicus [28] = test: Antiosteoporotic activity in glucocorticoid-induced Wistar rat osteoporosis model assessed as increase in trabecula area at 5 mg/kg/day, po administered six times a week for 3 months by toluidine blue staining-based light microscopic analysis relative to dexamethasone; type: functional, organism-based

C=C1/C(=C\C=C2/CCC[C@]3(C)[C@@H]([C@H](C)CCCC(C)C)CC[C@@H]23)C[C@@H](O)C[C@@H]1O [ALFACALCIDOL]
Activity (Rattus norvegicus [1]): Active
Activity (Rattus norvegicus [2]): 109.73 U/L
Activity (Rattus norvegicus [3]): 34.83%
Activity (Rattus norvegicus [4]): Active
Activity (Rattus norvegicus [5]): 3.42 ×10⁹ /L
Activity (Rattus norvegicus [6]): Active
Activity (Rattus norvegicus [7]): 28.54%
Activity (Rattus norvegicus [8]): 30.64 U/L
Activity (Rattus norvegicus [9]): Active
Activity (Rattus norvegicus [10]): 1.05 micrometer/day
Activity (Rattus norvegicus [11]): 0.51 mmol/L
Activity (Rattus norvegicus [12]): 8.15%
Activity (Rattus norvegicus [13]): 48.13%
Activity (Rattus norvegicus [14]): 6.72%

O=C(c1ccc(OCCN2CCCCC2)cc1)c1c(-c2ccc(O)cc2)sc2cc(O)ccc12 [RALOXIFENE]
Activity (Rattus norvegicus [15]): Active
Activity (Rattus norvegicus [16]): 35.09 U/L
Activity (Rattus norvegicus [17]): 34.35%
Activity (Rattus norvegicus [18]): 2.94 ×10⁹ /L
Activity (Rattus norvegicus [19]): 115.27 U/L
Activity (Rattus norvegicus [20]): Active
Activity (Rattus norvegicus [21]): 7.04%
Activity (Rattus norvegicus [22]): 39.05%
Activity (Rattus norvegicus [23]): 1.16 micrometer/day
Activity (Rattus norvegicus [24]): 7.82%
Activity (Rattus norvegicus [25]): 0.76 mmol/L
Activity (Rattus norvegicus [26]): Active
Activity (Rattus norvegicus [27]): 40.58%
Activity (Rattus norvegicus [28]): Active
